Data set [1] can be described thus: Intrinsic clearance in mouse microsomes at 0.5 uM. The format is ADME, Microsome.
Data set [2] has as its target T1, C-X-C chemokine receptor type 3 (Homo sapiens, UniProt P49682).
T1 sequence (P49682 whole entry): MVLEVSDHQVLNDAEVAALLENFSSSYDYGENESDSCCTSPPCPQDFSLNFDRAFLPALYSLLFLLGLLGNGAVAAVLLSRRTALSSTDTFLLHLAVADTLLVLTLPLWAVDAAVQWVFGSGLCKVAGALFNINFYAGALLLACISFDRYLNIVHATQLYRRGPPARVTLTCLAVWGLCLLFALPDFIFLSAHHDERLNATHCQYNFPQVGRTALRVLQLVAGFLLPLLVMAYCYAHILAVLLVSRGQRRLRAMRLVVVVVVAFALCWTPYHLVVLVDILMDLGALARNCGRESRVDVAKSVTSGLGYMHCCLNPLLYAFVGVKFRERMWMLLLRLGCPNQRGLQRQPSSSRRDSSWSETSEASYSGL
As to the kind of experiment: Binding affinity to human CXCR3 receptor expressed in CHO membrane by ITAC-stimulated GTP gammaS assay. Type of data set: cell membranes.

Data set [3] concerns the target Cytochrome P450 2D6 (Homo sapiens, UniProt P10635). As to the kind of experiment: Inhibition of CYP2D6. The format is ADME.
A short description of data set [4]: Partition coefficient, log D at pH 7.4. Conditions: octanol/water.
The target in data set [5] is CYP2D6 (Homo sapiens, UniProt P10635). Kind of data set: Inhibition of CYP2D6 at 50 uM. The format is ADME.
Sequence of CYP2D6 (P10635 whole entry): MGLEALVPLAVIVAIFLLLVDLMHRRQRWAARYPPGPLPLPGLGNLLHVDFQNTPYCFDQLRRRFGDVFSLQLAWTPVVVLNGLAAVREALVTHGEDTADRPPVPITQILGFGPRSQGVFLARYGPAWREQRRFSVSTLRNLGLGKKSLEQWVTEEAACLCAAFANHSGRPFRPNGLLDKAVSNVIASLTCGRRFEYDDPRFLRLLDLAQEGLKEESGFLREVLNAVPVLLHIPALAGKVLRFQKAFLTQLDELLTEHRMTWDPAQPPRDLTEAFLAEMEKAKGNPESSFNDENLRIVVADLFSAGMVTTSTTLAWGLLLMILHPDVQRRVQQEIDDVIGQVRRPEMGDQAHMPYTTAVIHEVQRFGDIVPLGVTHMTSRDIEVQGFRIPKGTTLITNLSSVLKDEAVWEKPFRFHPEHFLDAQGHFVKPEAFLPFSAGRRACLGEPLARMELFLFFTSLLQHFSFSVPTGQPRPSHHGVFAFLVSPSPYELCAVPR
The nature of data set [6]: Solubility of the compound. Type of data set: physicochemical.
For data set [7], the species on record is Homo sapiens. As to the kind of experiment: Protein binding in human plasma. Particulars: read-out: PPB (converted).
The nature of data set [8]: Half life in mouse at 10 mg/kg, po. Particulars: in vivo. The format is ADME, organism-based. The arrangement: dose 10 mg/kg, route oral.
Data set [9] in a line: AUC in mouse. The format is ADME, organism-based. Conditions: plasma.
Data set [10] in a line: Clearance in mouse plasma at 10 mg/kg, po. The format is ADME, organism-based. The arrangement: dose 10 mg/kg, route oral.
A short description of data set [11]: Cmax in mouse. Conditions: in vivo. The format is ADME, organism-based.
Data set [12] addresses T2, C-X-C chemokine receptor type 3 (Homo sapiens) (UniProt P49682).
T2 sequence (whole entry): T1 sequence (P49682 whole entry)
Kind of data set: Inhibition of human CXCR3 expressed in CHO membrane at 10 uM by ITAC-stimulated GTP gammaS assay. The format is cell membranes.

Experimental findings from ChEMBL document CHEMBL1140582, “Development of CXCR3 antagonists. Part 2: Identification of 2-amino(4-piperidinyl)azoles as potent CXCR3 antagonists” (Bioorg Med Chem Lett, 2007) are described below.

≈ marks a conversion by molar mass, not a printed value.

Sequence of Cytochrome P450 2D6 (P10635 whole entry): as above

What is called Ki is the equilibrium dissociation constant of an inhibitor or competing ligand from its target. A low value points to higher affinity. As usually defined, the logD is lipophilicity at a set pH, counting ionised and neutral species. `CC1(C)[C@H]2CC=C(CN3CCC(Nc4nc5c(Br)cccc5s4)CC3)[C@@H]1C2` came in with a clearance in [1] of 140 µL/min/mg. Besides, the affinity in data set [2], expressed as Ki, was 150 nM. Besides, the Activity in data set [3] is 1.2 µM. In data set [4], this compound displayed a logD above 5.
As to `CC1(C)[C@H]2CC=C(CN3CCC(N4CCN(c5cc(F)cc(C(F)(F)F)c5)C4=O)CC3)[C@@H]1C2`, the clearance in data set [1] was found to be 88 µL/min/mg. The compound also returned a Ki in data set [2] of 200 nM. In data set [4], this compound had a logD of 4.6.
In data set [2], `CN(c1nc2c(Cl)cccc2s1)C1CCN(CC2=CC[C@H]3C[C@@H]2C3(C)C)CC1` registered a Ki of 460 nM. In data set [4], this compound had a logD of 5.
The compound `CCc1cccc(N2C(=O)CN(C3CCN(CC4=CC[C@H]5C[C@@H]4C5(C)C)CC3)C2=O)c1` showed a clearance in [1] of 190 µL/min/mg. In addition, the inhibition constant (Ki) in [2] was 380 nM. The log distribution coefficient (logD) in [4] amounted to 4.7.
`CN(C(=O)Nc1cccc(C(F)(F)F)c1)C1CCN(CC2=CC[C@H]3C[C@@H]2C3(C)C)CC1` displayed a Ki in data set [2] of 180 nM.
On to `CN(c1nc2cc(Cl)ccc2s1)C1CCN(CC2=CC[C@H]3C[C@@H]2C3(C)C)CC1`, for which the clearance in data set [1] is 41 µL/min/mg. Moreover, the affinity in data set [2], expressed as Ki, was 290 nM. In data set [3], this compound came in with an Activity of 3.5 µM. For the same compound, in [4], the pH-dependent lipophilicity (logD) stood at 5.
As for `CN(c1nc2ccccc2s1)C1CCN(CC2=CC[C@H]3C[C@@H]2C3(C)C)CC1`, the clearance in [1] stood at 78 µL/min/mg. This compound registered an inhibition constant Ki in data set [2] of 140 nM. In [3], this compound had an Activity of 2.2 µM. The compound also had a pH-dependent lipophilicity (logD) in data set [4] above 5.
Usually inhibition stands for the change of the read-out against control, counted positive when it falls. High values mean a response far below the control, low ones a response near the control. `CC1(C)[C@H]2CC=C(CN3CCC(Nc4nc(-c5ccc(Cl)c(Cl)c5)cs4)CC3)[C@@H]1C2` had an inhibition at 50 µM in data set [5] below 20%. Further, affinity in data set [2] was put at a Ki of 460 nM. The log distribution coefficient (logD) in data set [4] is above 5.
`CC1(C)[C@H]2CC=C(CN3CCC(Nc4nc(-c5cc(C(F)(F)F)cc(C(F)(F)F)c5)cs4)CC3)[C@@H]1C2`: the clearance in [1] amounted to 34 µL/min/mg. The same compound had an inhibition at 50 µM in data set [5] below 20%. The compound also displayed a Ki in data set [2] of 260 nM. This compound came in with a logD in [4] above 5.
Take `CC1(C)[C@H]2CC=C(CN3CCC(Nc4nc5ccccc5s4)CC3)[C@@H]1C2`: the clearance in data set [1] was determined as 1 µL/min/mg. Besides, in data set [2], the Ki amounted to 350 nM. For the same compound, the Activity in data set [3] came to 13 µM. For the same compound, in data set [4], the logD is above 5.
In data set [1], `CC1(C)[C@H]2CC=C(CN3CCC(N4CCN(c5cc(C(F)(F)F)cc(C(F)(F)F)c5)C4=O)CC3)[C@@H]1C2` yielded a clearance of 7 µL/min/mg. The same compound returned a Ki in data set [2] of 170 nM. The pH-dependent lipophilicity (logD) in data set [4] is above 5.5.
As for `CN(c1nc2ccccc2o1)C1CCN(CC2=CC[C@H]3C[C@@H]2C3(C)C)CC1`, the Ki in [2] was 720 nM. Also, the logD in data set [4] amounted to 4.6.
Take `CCc1cccc(N(C)C(=O)NC2CCN(CC3=CC[C@H]4C[C@@H]3C4(C)C)CC2)c1`: in [2], the affinity corresponds to a Ki of 3500 nM.
On the same count and under the same terms, for `CCN(C(=O)Nc1cccc(C(F)(F)F)c1)C1CCN(CC2=CC[C@H]3C[C@@H]2C3(C)C)CC1` the value was 3600 nM.
Turning to `CC1(C)[C@H]2CC=C(CN3CCC(Nc4nc(-c5ccccc5)cs4)CC3)[C@@H]1C2`, in [5], the inhibition at 50 µM was below 20%. The Ki in data set [2] worked out at 880 nM. In data set [4], the pH-dependent lipophilicity (logD) is 4.7.
`CN(c1nc2ccccc2[nH]1)C1CCN(CC2=CC[C@H]3C[C@@H]2C3(C)C)CC1` displayed an inhibitory constant (Ki) in data set [2] of 950 nM. Also, the logD in data set [4] worked out at 4.2.
Compound `CC1(C)[C@H]2CC=C(CN3CCC(Nc4nc5ccc(Br)cc5s4)CC3)[C@@H]1C2` showed a clearance in [1] of 150 µL/min/mg. Further, the Ki in data set [2] was determined as 130 nM. In data set [3], this compound registered an Activity of 0.7 µM. In data set [4], this compound came in with a log distribution coefficient (logD) above 5.
For orientation: solubility means the concentration that dissolves in the medium under given conditions. Higher therefore signals much dissolved substance. Broadly, the half-life is how long it takes for the measured level to halve. As usually defined, the AUC is the area under the concentration-time curve, a measure of exposure. Usually CL/F stands for clearance divided by bioavailability, as obtained after extravascular dosing. A word on the Cmax: it is the peak of the concentration-time curve. Compound `CC1(C)[C@H]2CC=C(CN3CCC(Nc4nc(-c5cc(C(F)(F)F)cc(C(F)(F)F)c5)ns4)CC3)[C@@H]1C2` displayed a clearance in data set [1] of 16 µL/min/mg. Further, in data set [2], the inhibition constant (Ki) was found to be 270 nM. The compound further had a solubility in data set [6] of 2.7 µg/mL (≈ 5.09 µM). Further, the fraction unbound in data set [7] is 0.003. Moreover, in [8], the half-life was 324 min. Further, the Activity in data set [3] turned out to be 15 µM. Besides, the AUC in data set [9] worked out at 10800 ng·h/mL. The compound further had a pH-dependent lipophilicity (logD) in data set [4] of 5. In data set [10], this compound gave a CL/F of 2.8 mL/min/kg. Moreover, in data set [11], the highest level (Cmax) was 2010 ng/mL.
On to `CC1(C)[C@H]2CC=C(CN3CCC(N4CC(=O)N(c5ccc(Cl)c(C(F)(F)F)c5)C4=O)CC3)[C@@H]1C2`, for which, in [1], the clearance amounted to 280 µL/min/mg. In data set [2], this compound returned a Ki of 120 nM. In [4], this compound showed a logD of 5.3.
In [2], `CN(c1nc2cccc(Cl)c2s1)C1CCN(CC2=CC[C@H]3C[C@@H]2C3(C)C)CC1` yielded a Ki of 620 nM. This compound also registered an Activity in [3] of 4.1 µM. In [4], this compound yielded a logD above 5.
In turn, `CC1(C)[C@H]2CC=C(CN3CCC(N4CC(=O)N(c5cc(F)cc(C(F)(F)F)c5)C4=O)CC3)[C@@H]1C2` returned a clearance in data set [1] of 290 µL/min/mg. The Ki in data set [2] stood at 100 nM. Besides, in data set [4], the pH-dependent lipophilicity (logD) is 4.85.
In the case of `CC1(C)[C@H]2CC=C(CN3CCC(N4CC(=O)N(c5cc(C(F)(F)F)cc(C(F)(F)F)c5)C4=O)CC3)[C@@H]1C2`, the clearance in [1] came to 220 µL/min/mg. Further, the Ki in data set [2] was 26 nM. Further, the logD in data set [4] is above 5.5.
The corresponding values for `CC1(C)[C@H]2CC=C(CN3CCC(N4CC(=O)N(c5cccc(C(F)(F)F)c5)C4=O)CC3)[C@@H]1C2` are 318 µL/min/mg, 220 nM and 4.6.
In [4], `CC(=O)c1cccc(N2C(=O)CN(C3CCN(CC4=CC[C@H]5C[C@@H]4C5(C)C)CC3)C2=O)c1` displayed a log distribution coefficient (logD) of 3.4. The inhibition in data set [12] was below 20%.
Compound `CC1(C)[C@H]2CC=C(CN3CCC(Nc4nc5ccccc5o4)CC3)[C@@H]1C2` had a Ki in data set [2] of 680 nM.
In turn, `CN(c1nc2ccc(Cl)cc2s1)C1CCN(CC2=CC[C@H]3C[C@@H]2C3(C)C)CC1` had a clearance in [1] of 48 µL/min/mg. This compound had a Ki in data set [2] of 170 nM. The same compound returned an Activity in data set [3] of 7.3 µM. The compound also came in with a pH-dependent lipophilicity (logD) in [4] of 5.
In data set [1], `CSc1cccc(N2C(=O)CN(C3CCN(CC4=CC[C@H]5C[C@@H]4C5(C)C)CC3)C2=O)c1` returned a clearance of 230 µL/min/mg. In data set [2], the inhibitory constant (Ki) came to 750 nM. The logD in data set [4] stood at 5.
`CC1(C)[C@H]2CC=C(CN3CCC(N(Cc4ccccc4)C(=O)Nc4cccc(C(F)(F)F)c4)CC3)[C@@H]1C2` had an inhibition in [12] below 20%.
